From patent US20250051327A1, “MALT-1 MODULATORS” (EXSCIENTIA AI LIMITED, priority 2020, published 2025)

Assays:
[1] = target: Recombinant human MALT-1 (amino acids 340-824) (Homo sapiens (Human), UniProt Q9UDY8); experiment: MALT-1 inhibition assay (fluorogenic substrate Ac-LRSR-Rh110-DP); type: biochemical; conditions: recombinant human MALT-1, substrate Ac-LRSR-Rh110-DP
Method in brief: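 MALT-1 at 3 nM final was reacted with 10 μM Ac-LRSR-Rh110-DP, with substrate addition starting the reaction. Incubation ran 60 minutes at 25° C in the dark. Percent inhibition from fluorescence across doses was fitted to a 4-parameter logistic to give IC50.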

[2] = test system: IL-2 secretion by human effector memory T cells (TEM); experiment: Effector memory T cells IL-2 release assay; type: cell-based; conditions: T-cell; human CD4+ effector memory T cells, CD3/CD28 bead stimulation, 24 h; read-out: CD4TC IL2 IC50
Method in brief: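 Human CD4+ effector memory T cells from healthy-donor buffy coats were stimulated with anti-CD3/CD28 Dynabeads and exposed to 10 semi-log compound doses (0.1% DMSO) for 24 h at 37 °C. Supernatant IL-2 was measured by HTRF, and IC50 came from a 4-parameter logistic fit to maximal IL-2. Viability was checked by flow cytometry.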

Sequence of Recombinant human MALT-1 (amino acids 340-824) (Q9UDY8 340-824): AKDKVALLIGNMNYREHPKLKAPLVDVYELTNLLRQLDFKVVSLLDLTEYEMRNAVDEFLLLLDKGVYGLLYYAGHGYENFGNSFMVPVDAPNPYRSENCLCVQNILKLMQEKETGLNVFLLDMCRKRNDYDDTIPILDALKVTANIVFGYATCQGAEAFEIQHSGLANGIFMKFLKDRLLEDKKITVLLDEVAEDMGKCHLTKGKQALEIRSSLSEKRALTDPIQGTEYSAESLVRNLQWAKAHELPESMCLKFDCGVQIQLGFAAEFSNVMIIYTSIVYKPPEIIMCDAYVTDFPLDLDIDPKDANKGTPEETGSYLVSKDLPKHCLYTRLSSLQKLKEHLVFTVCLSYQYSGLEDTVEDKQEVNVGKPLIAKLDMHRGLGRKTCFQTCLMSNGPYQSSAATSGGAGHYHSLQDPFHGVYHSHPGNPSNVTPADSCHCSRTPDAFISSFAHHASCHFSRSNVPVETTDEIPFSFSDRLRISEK

IC50 [1]	IC50 [2]	Compound
43 nM	114 nM	CO[C@H](C)c1c(Nc2ccc([C@H](N(C)C(=O)C3CCS(=O)(=O)CC3)C(F)(F)F)cc2)cnn2cc(Cl)nc12 [CPD0072850]
72 nM	422 nM	CN(C(=O)[C@H]1C[C@@H](C(=O)O)C1)[C@@H](c1ccc(N2CCCc3c2cnc2cc(Cl)nn32)cc1)C(F)(F)F [CPD0072934, (cis)-3-{[(1S)-1-(4-{4-chloro-2,3,7,10-tetraazatricyclo[7.4.0.0^2,6]trideca-1(9),3,5,7-tetraen-10-yl}phenyl)-2,2,2-trifluoroethyl](methyl)carbamoyl}cyclobutane-1-carboxylic acid]
75 nM	93 nM	CN(C(=O)C1CC2(C1)CS(=O)(=O)C2)[C@@H](c1ccc(N2CCCc3c2cnc2cc(Cl)nn32)cc1)C(F)(F)F [CPD0072937, N-[(1S)-1-(4-{4-chloro-2,3,7,10-tetraazatricyclo[7.4.0.0^2,6]trideca-1(9),3,5,7-tetraen-10-yl}phenyl)-2,2,2-trifluoroethyl]-N-methyl-2,2-dioxo-2λ^6-thiaspiro[3.3]heptane-6-carboxamide]
90 nM	92 nM	CN(C(=O)[C@@H]1C[C@H]2CC[C@@H](C1)S2(=O)=O)[C@@H](c1ccc(N2CCCc3c2cnc2cc(Cl)nn32)cc1)C(F)(F)F [CPD0072938, (1R,3R,5S)-N-[(1S)-1-(4-{4-chloro-2,3,7,10-tetraazatricyclo[7.4.0.0^2,6]trideca-1(9),3,5,7-tetraen-10-yl}phenyl)-2,2,2-trifluoroethyl]-N-methyl-8,8-dioxo-8λ^6-thiabicyclo[3.2.1]octane-3-carboxamide]
368 nM	642 nM	COc1cc([C@H](N(C)C(=O)C2CCS(=O)(=O)CC2)C(F)(F)F)ccc1N1CCCc2c1cnc1cc(Cl)nn21 [CPD0073040, N-[(1S)-1-(4-{4-chloro-2,3,7,10-tetraazatricyclo[7.4.0.0^2,6]trideca-1(9),3,5,7-tetraen-10-yl}-3-methoxyphenyl)-2,2,2-trifluoroethyl]-N-methyl-1,1-dioxo-1λ^6-thiane-4-carboxamide]
432 nM	5780 nM	CN(C(=O)C1CCS(=O)(=O)CC1)[C@@H](c1ccc(N2CCCc3c2cnc2cc(Cl)nn32)cc1)C(F)F [CPD0073041, N-[(1S)-1-(4-{4-chloro-2,3,7,10-tetraazatricyclo[7.4.0.0^2,6]trideca-1(9),3,5,7-tetraen-10-yl}phenyl)-2,2-difluoroethyl]-N-methyl-1,1-dioxo-1λ^6-thiane-4-carboxamide]
197 nM	780 nM	CN(C(=O)C1CCS(=O)(=O)CC1)[C@@H](c1ccc(N2CCCc3c2cnc2cc(Cl)nn32)cn1)C(F)(F)F [CPD0073056, N-[(1S)-1-[5-(4-chloro-2,3,7,10-tetrazatricyclo[7.4.0.0^2,6]trideca-1(9),3,5,7-tetraen-10-yl)-2-pyridyl]-2,2,2-trifluoro-ethyl]-N-methyl-1,1-dioxo-thiane-4-carboxamide]
90 nM	146 nM	CN(C(=O)C1COC1)[C@@H](c1ccc(N2CCCc3c2cnc2cc(Cl)nn32)cc1)C(F)(F)F [CPD0073083, N-[(1S)-1-(4-{4-chloro-2,3,7,10-tetraazatricyclo[7.4.0.0^2,6]trideca-1(9),3,5,7-tetraen-10-yl}phenyl)-2,2,2-trifluoroethyl]-N-methyloxetane-3-carboxamide]
168 nM	255 nM	CN(C(=O)N1CCOCC1)[C@@H](c1ccc(N2CCCc3c2cnc2cc(Cl)nn32)cc1)C(F)(F)F [CPD0073084, N-[(1S)-1-(4-{4-chloro-2,3,7,10-tetraazatricyclo[7.4.0.0^2,6]trideca-1(9),3,5,7-tetraen-10-yl}phenyl)-2,2,2-trifluoroethyl]-N-methylmorpholine-4-carboxamide]
154 nM	286 nM	CN(C(=O)CN1CCCS1(=O)=O)[C@@H](c1ccc(N2CCCc3c2cnc2cc(Cl)nn32)cc1)C(F)(F)F [CPD0073085, N-[(1S)-1-(4-{4-chloro-2,3,7,10-tetraazatricyclo[7.4.0.0^2,6]trideca-1(9),3,5,7-tetraen-10-yl}phenyl)-2,2,2-trifluoroethyl]-2-(1,1-dioxo-1λ^6,2-thiazolidin-2-yl)-N-methylacetamide]
78 nM	103 nM	CN(C(=O)C12CN(C1)S(=O)(=O)C2)[C@@H](c1ccc(N2CCCc3c2cnc2cc(Cl)nn32)cc1)C(F)(F)F [CPD0073087, N-[(1S)-1-(4-{4-chloro-2,3,7,10-tetraazatricyclo[7.4.0.0^2,6]trideca-1(9),3,5,7-tetraen-10-yl}phenyl)-2,2,2-trifluoroethyl]-N-methyl-2,2-dioxo-2λ^6-thia-1-azabicyclo[2.1.1]hexane-4-carboxamide]
91 nM	142 nM	CN(C(=O)CC1CCS(=O)(=O)CC1)[C@@H](c1ccc(N2CCCc3c2cnc2cc(Cl)nn32)cc1)C(F)(F)F [CPD0073088]
46 nM	79 nM	CC(=O)N1CCC(C(=O)N(C)[C@@H](c2ccc(N3CCCc4c3cnc3cc(Cl)nn43)cc2)C(F)(F)F)CC1 [CPD0073089, 1-acetyl-N-[(1S)-1-(4-{4-chloro-2,3,7,10-tetraazatricyclo[7.4.0.0^2,6]trideca-1(9),3,5,7-tetraen-10-yl}phenyl)-2,2,2-trifluoroethyl]-N-methylpiperidine-4-carboxamide]
59 nM	101 nM	CN(C(=O)C1CCN(C(=O)CO)CC1)[C@@H](c1ccc(N2CCCc3c2cnc2cc(Cl)nn32)cc1)C(F)(F)F [CPD0073091, N-[(1S)-1-(4-{4-chloro-2,3,7,10-tetraazatricyclo[7.4.0.0^2,6]trideca-1(9),3,5,7-tetraen-10-yl}phenyl)-2,2,2-trifluoroethyl]-1-(2-hydroxyacetyl)-N-methylpiperidine-4-carboxamide]
56 nM	181 nM	CN(C(=O)[C@H]1C[C@@H]([S@+](C)(=N)[O-])C1)[C@@H](c1ccc(N2CCCc3c2cnc2cc(Cl)nn32)cc1)C(F)(F)F [CPD0073224, (1S,3s)-N-[(1S)-1-(4-{4-chloro-2,3,7,10-tetraazatricyclo[7.4.0.0^2,6]trideca-1(9),3,5,7-tetraen-10-yl}phenyl)-2,2,2-trifluoroethyl]-3-[(S)-imino(methyl)oxo-λ^6-sulfanyl]-N-methylcyclobutane-1-carboxamide]
53 nM	122 nM	CN(C(=O)[C@H]1C[C@H]([S@@+](C)(=N)[O-])C1)[C@@H](c1ccc(N2CCCc3c2cnc2cc(Cl)nn32)cc1)C(F)(F)F [CPD0073225, (1S,3r)-N-[(1S)-1-(4-{4-chloro-2,3,7,10-tetraazatricyclo[7.4.0.0^2,6]trideca-1(9),3,5,7-tetraen-10-yl}phenyl)-2,2,2-trifluoroethyl]-3-[(S)-imino(methyl)oxo-λ^6-sulfanyl]-N-methylcyclobutane-1-carboxamide]
60 nM	105 nM	CN(C(=O)[C@H]1C[C@H]([S@+](C)(=N)[O-])C1)[C@@H](c1ccc(N2CCCc3c2cnc2cc(Cl)nn32)cc1)C(F)(F)F [CPD0073226, (1R,3s)-N-[(1S)-1-(4-{4-chloro-2,3,7,10-tetraazatricyclo[7.4.0.0^2,6]trideca-1(9),3,5,7-tetraen-10-yl}phenyl)-2,2,2-trifluoroethyl]-3-[(S)-imino(methyl)oxo-λ^6-sulfanyl]-N-methylcyclobutane-1-carboxamide]
174 nM	513 nM	CN(C(=O)CN1C(=O)COC1=O)[C@@H](c1ccc(N2CCCc3c2cnc2cc(Cl)nn32)cc1)C(F)(F)F [CPD0073237, N-[(1S)-1-(4-{4-chloro-2,3,7,10-tetraazatricyclo[7.4.0.0^2,6]trideca-1(9),3,5,7-tetraen-10-yl}phenyl)-2,2,2-trifluoroethyl]-2-(2,4-dioxo-1,3-oxazolidin-3-yl)-N-methylacetamide]
87 nM	174 nM	CN(C(=O)C1CN(S(C)(=O)=O)C1)[C@@H](c1ccc(N2CCCc3c2cnc2cc(Cl)nn32)cc1)C(F)(F)F [CPD0073238, N-[(1S)-1-(4-{4-chloro-2,3,7,10-tetraazatricyclo[7.4.0.0^2,6]trideca-1(9),3,5,7-tetraen-10-yl}phenyl)-2,2,2-trifluoroethyl]-1-methanesulfonyl-N-methylazetidine-3-carboxamide]
273 nM	315 nM	CN(C(=O)CN1CCOCC1)[C@@H](c1ccc(N2CCCc3c2cnc2cc(Cl)nn32)cc1)C(F)(F)F [CPD0073243, N-[(1S)-1-(4-{4-chloro-2,3,7,10-tetraazatricyclo[7.4.0.0^2,6]trideca-1(9),3,5,7-tetraen-10-yl}phenyl)-2,2,2-trifluoroethyl]-N-methyl-2-(morpholin-4-yl)acetamide]
66 nM	140 nM	CN(C(=O)[C@H]1C[C@H](S(C)(=O)=O)C1)[C@@H](c1ccc(N2CCCc3c2cnc2cc(Cl)nn32)cc1)C(F)(F)F [CPD0073501, trans-N-[(1S)-1-(4-{4-chloro-2,3,7,10-tetraazatricyclo[7.4.0.0^2,6]trideca-1(9),3,5,7-tetraen-10-yl}phenyl)-2,2,2-trifluoroethyl]-3-methanesulfonyl-N-methylcyclobutane-1-carboxamide]
61 nM	104 nM	CN(C(=O)[C@H]1C[C@@H](S(C)(=O)=O)C1)[C@@H](c1ccc(N2CCCc3c2cnc2cc(Cl)nn32)cc1)C(F)(F)F [CPD0073502, cis-N-[(1S)-1-(4-{4-chloro-2,3,7,10-tetraazatricyclo[7.4.0.0^2,6]trideca-1(9),3,5,7-tetraen-10-yl}phenyl)-2,2,2-trifluoroethyl]-3-methanesulfonyl-N-methylcyclobutane-1-carboxamide]
